{"source": "patent US8263656B2", "about": "(Hoffmann-La Roche Inc., priority 2008, dated 2012)"}
{"molecular_target": "T1, human CRTH2 (Homo sapiens, UniProt Q9Y5Y4)", "T1 construct": "expressed in transfected cells", "T1 sequence (Q9Y5Y4 1-395)": "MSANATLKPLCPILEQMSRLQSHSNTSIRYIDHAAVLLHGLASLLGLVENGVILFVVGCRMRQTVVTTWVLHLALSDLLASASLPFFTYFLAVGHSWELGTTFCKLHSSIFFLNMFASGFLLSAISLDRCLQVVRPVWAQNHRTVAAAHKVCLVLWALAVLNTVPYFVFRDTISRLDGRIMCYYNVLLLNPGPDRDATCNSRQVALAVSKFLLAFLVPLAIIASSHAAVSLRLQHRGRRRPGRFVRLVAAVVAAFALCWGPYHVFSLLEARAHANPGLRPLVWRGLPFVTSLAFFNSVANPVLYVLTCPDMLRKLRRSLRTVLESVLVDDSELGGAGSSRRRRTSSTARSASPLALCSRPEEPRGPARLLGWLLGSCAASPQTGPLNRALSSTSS", "assay": "Human CRTH2 Receptor Binding Assay (whole cell, [3H]ramatroban competition)", "settings": "CHO-K1 cells expressing human CRTH2 and G-alpha16; 20 nM [3H]ramatroban; 1 hour, room temperature", "text": "A whole cell receptor binding assay using [^3H]ramatroban as the competing radioactive ligand was employed to evaluate the compound binding activity to human CRTH2. The radioactive ligand [^3H]ramatroban was synthesized according to Sugimoto et. al. (Eur. J. Pharmacol. 524, 30-37, 2005) to a specific activity of 42 Ci/mmol.\nA cell line stably expressing human CRTH2 was established by transfecting CHO-K1 cells with two mammalian expression vectors that harbored human CRTH2 and G-alpha16 cDNAs, respectively, using FuGene® 6 transfection reagent (from Roche). Stable clones expressing CRTH2 were selected by staining each clone with BM16 (BD Pharmingen™ from BD Biosciences, a division of Becton, Dickinson and Company), which is a rat monoclonal antibody to human CRTH2. The cells were maintained as monolayer cultures in Ham's F-12 medium containing 10% fetal bovine serum, 100 units/mL penicillin, […] streptomycin, 2 mM glutamine, 0.5 mg/mL G418 (geneticin) for CRTH2, and 0.2 mg/mL hygromycin-B (for G-alpha 16). For whole cell receptor binding assay, the monolayer cells were rinsed once with PBS (phosphate buffered saline), dissociated using diammonium ethylenediaminetetraacetate (Versene™ EDTA from the Dow Chemical Company), and suspended in PBS containing 10 mM MgCl2 and 0.06% BSA (bovine serum albumin) at 1.5×10^6 cells/mL.\nThe binding reactions (0.2 mL) were performed in 96-well plates at room temperature in PBS containing 1.5×10^5 cells, 10 mM MgCl2, 0.06% BSA, 20 nM [^3H]ramatroban, and test compound at various concentrations. After 1 hour of binding reactions, the cells were harvested on GF™/B filter microplates (microtiter plates with embedded glass fiber from PerkinElmer, Inc.) and washed 5 times with PBS using a Filtermate™ Harvester (a cell harvester that harvests and washes cells from microplates from PerkinElmer, Inc.). The radioactivities bound to the cells were determined using a microplate scintillation counter (TopCount® NXT, from PerkinElmer, Inc.) after adding 50 μL of Microscint™ 20 scintillation fluid (from PerkinElmer, Inc.) to each well of the filter plates. The radioactivity from non-specific binding was determined by replacing compound with 10 μM of 15(R)-15-methyl PGD2 (from Cayman Chemical Company) in the reaction mixtures. The radioactivity bound to the cells in the absence of compound (total binding) was determined by replacing compound with 0.25% of DMSO (dimethyl sulfoxide) in the reaction mixture. Specific binding data were obtained by subtracting the radioactivity of non-specific binding from each binding data.\nThe IC50 value is defined as the concentration of the tested compound that is required for 50% inhibition of total specific binding. In order to calculate the IC50 value, the percent inhibition data were determined for 7 concentrations for each compound. The percent inhibition for a compound at each concentration was calculated according to the following formula, [1-(specific binding in the presence of compound)/(total specific binding)]×100. The IC50 value was then obtained by fitting the percent inhibition data to a sigmoidal dose-response (4 parameter logistic) model in the XLfit® software Excel add-in program [from ID Business Solutions Ltd., model 205, where F(x)=(A+(B−A)/(1+((C/x)^D)))].", "units": {"IC50": "nM"}}
{"smiles": "O=C(O)COc1c(F)c(Cl)cc2c1CCC[C@H]2NS(=O)(=O)c1cc(C(F)(F)F)cc(C(F)(F)F)c1", "note": "[Example 1-1, [(R)-5-(3,5-Bis-trifluoromethyl-benzenesulfonylamino)-3-chloro-2-fluoro-5,6,7,8-tetrahydro-naphthalen-1-yloxy]-acetic acid]", "IC50": 2.4}
{"smiles": "Cc1ccc2c(c1OCC(=O)O)CCCC2NS(=O)(=O)c1cc(C(F)(F)F)cc(C(F)(F)F)c1", "note": "(centres unmarked) [Example 1-3, [5-(3,5-Bis-trifluoromethyl-benzenesulfonyl-amino)-2-methyl-5,6,7,8-tetrahydro-naphthalen-1-yloxy]-acetic acid]", "IC50": 147}
{"smiles": "CCc1ccc2c(c1OCC(=O)O)CCCC2NS(=O)(=O)c1cc(C(F)(F)F)cc(C(F)(F)F)c1", "note": "(centres unmarked) [Example 1-4, [5-(3,5-Bis-trifluoromethyl-benzenesulfonyl-amino)-2-ethyl-5,6,7,8-tetrahydro-naphthalen-1-yloxy]-acetic acid]", "IC50": 64}
{"smiles": "Cc1c(Cl)cc2c(c1OCC(=O)O)CCCC2NS(=O)(=O)c1cc(C(F)(F)F)cc(C(F)(F)F)c1", "note": "(centres unmarked) [Example 1-5, [5-(3,5-Bis-trifluoromethyl-benzenesulfonyl-amino)-3-chloro-2-methyl-5,6,7,8-tetrahydro-naphthalen-1-yloxy]-acetic acid]", "IC50": 28.4}
{"smiles": "O=C(O)COc1cc(Cl)cc2c1CCCC2NS(=O)(=O)c1cc(C(F)(F)F)cc(C(F)(F)F)c1", "note": "(centres unmarked) [Example 1-6]", "IC50": 5.8}
{"smiles": "O=C(O)COc1c(Cl)ccc2c1CCCC2NS(=O)(=O)c1cc(C(F)(F)F)cc(C(F)(F)F)c1", "note": "(centres unmarked) [Example 1-7, [5-(3,5-Bis-trifluoromethyl-benzenesulfonyl-amino)-2-chloro-5,6,7,8-tetrahydro-naphthalen-1-yloxy]-acetic acid]", "IC50": 292}
{"smiles": "O=C(O)COc1cc(Cl)cc2c1CCC[C@H]2NS(=O)(=O)c1cc(C(F)(F)F)cc(C(F)(F)F)c1", "note": "[Example 1-8]", "IC50": 3.5}
{"smiles": "O=C(O)COc1c(F)c(Cl)cc2c1CCCC2NS(=O)(=O)c1cc(C(F)(F)F)cc(C(F)(F)F)c1", "note": "(centres unmarked) [Example 1-9, [5-(3,5-Bis-trifluoromethyl-benzenesulfonyl-amino)-3-chloro-2-fluoro-5,6,7,8-tetrahydro-naphthalen-1-yloxy]-acetic acid]", "IC50": 5.8}
{"smiles": "O=C(O)COc1c(F)c(Cl)cc2c1CCCC2NS(=O)(=O)c1cc(Cl)ccc1Cl", "note": "(centres unmarked) [Example 1-10]", "IC50": 11.4}
{"smiles": "O=C(O)COc1cc(Cl)cc2c1CCCC2NS(=O)(=O)c1ccc(Cl)cc1Cl", "note": "(centres unmarked) [Example 1-11, [3-Chloro-5-(2,4-dichloro-benzenesulfonyl-amino)-5,6,7,8-tetrahydro-naphthalen-1-yloxy]-acetic acid]", "IC50": 3.5}
{"smiles": "O=C(O)COc1c(Cl)c(Cl)cc2c1CCCC2NS(=O)(=O)c1cc(C(F)(F)F)cc(C(F)(F)F)c1", "note": "(centres unmarked) [Example 1-12, [5-(3,5-Bis-trifluoromethyl-benzenesulfonyl-amino)-2,3-dichloro-5,6,7,8-tetrahydro-naphthalen-1-yloxy]-acetic acid]", "IC50": 26.1}
{"smiles": "O=C(O)COc1cc(Cl)cc2c1CCCC2NS(=O)(=O)c1cc(Cl)ccc1Cl", "note": "(centres unmarked) [Example 1-13, [3-Chloro-5-(2,5-dichloro-benzenesulfonyl-amino)-5,6,7,8-tetrahydro-naphthalen-1-yloxy]-acetic acid]", "IC50": 7.1}
{"smiles": "O=C(O)COc1c(F)c(Cl)cc2c1CCCC2NS(=O)(=O)c1ccc(Cl)cc1Cl", "note": "(centres unmarked) [Example 1-14]", "IC50": 7.7}
{"smiles": "O=C(O)COc1c(F)c(Cl)cc2c1CCCC2NS(=O)(=O)c1cc(Br)cc(C(F)(F)F)c1", "note": "(centres unmarked) [Example 1-15, [5-(3-Bromo-5-trifluoromethyl-benzenesulfonyl-amino)-3-chloro-2-fluoro-5,6,7,8-tetrahydro-naphthalen-1-yloxy]-acetic acid]", "IC50": 8}
{"smiles": "O=C(O)COc1cc(Cl)cc2c1CCCC2NS(=O)(=O)c1cc(F)cc(C(F)(F)F)c1", "note": "(centres unmarked) [Example 1-16, [3-Chloro-5-(3-fluoro-5-trifluoromethyl-benzenesulfonyl-amino)-5,6,7,8-tetrahydro-naphthalen-1-yloxy]-acetic acid]", "IC50": 3.8}
{"smiles": "O=C(O)COc1cc(Cl)cc2c1CCCC2NS(=O)(=O)c1cc(Br)cc(C(F)(F)F)c1", "note": "(centres unmarked) [Example 1-17, [5-(3-Bromo-5-trifluoromethyl-benzenesulfonyl-amino)-3-chloro-5,6,7,8-tetrahydro-naphthalen-1-yloxy]-acetic acid]", "IC50": 3.6}
{"smiles": "O=C(O)COc1cc(Cl)cc2c1CCC[C@H]2NS(=O)(=O)c1ccc(Cl)cc1Cl", "note": "[Example 1-18, [(R)-3-Chloro-5-(2,4-dichloro-benzenesulfonyl-amino)-5,6,7,8-tetrahydro-naphthalen-1-yloxy]-acetic acid]", "IC50": 2.8}
{"smiles": "O=C(O)COc1cc(Br)cc2c1CCCC2NS(=O)(=O)c1cc(C(F)(F)F)cc(C(F)(F)F)c1", "note": "(centres unmarked) [Example 1-19, [5-(3,5-Bis-trifluoromethyl-benzenesulfonyl-amino)-3-bromo-5,6,7,8-tetrahydro-naphthalen-1-yloxy]-acetic acid]", "IC50": 2.9}
{"smiles": "O=C(O)COc1cc(Br)cc2c1CCC[C@H]2NS(=O)(=O)c1cc(C(F)(F)F)cc(C(F)(F)F)c1", "note": "[Example 1-20, [(R)-5-(3,5-Bis-trifluoromethyl-benzenesulfonyl-amino)-3-bromo-5,6,7,8-tetrahydro-naphthalen-1-yloxy]-acetic acid]", "IC50": 2.5}
{"smiles": "O=C(O)COc1c(F)c(Cl)cc2c1CCCC2NS(=O)(=O)c1cc(F)cc(C(F)(F)F)c1", "note": "(centres unmarked) [Example 1-21, [3-Chloro-2-fluoro-5-(3-fluoro-5-trifluoromethyl-benzenesulfonyl-amino)-5,6,7,8-tetrahydro-naphthalen-1-yloxy]-acetic acid]", "IC50": 2.8}
{"smiles": "O=C(O)COc1c(F)ccc2c1CCCC2NS(=O)(=O)c1cc(C(F)(F)F)cc(C(F)(F)F)c1", "note": "(centres unmarked) [Example 1-22, [5-(3,5-Bis-trifluoromethyl-benzenesulfonyl-amino)-2-fluoro-5,6,7,8-tetrahydro-naphthalen-1-yloxy]-acetic acid]", "IC50": 33.7}
{"smiles": "COc1cc(OCC(=O)O)c2c(c1)[C@H](NS(=O)(=O)c1cc(C(F)(F)F)cc(C(F)(F)F)c1)CCC2", "note": "[Example 1-23, [(R)-5-(3,5-Bis-trifluoromethyl-benzenesulfonyl-amino)-3-methoxy-5,6,7,8-tetrahydro-naphthalen-1-yloxy]-acetic acid]", "IC50": 3.6}
{"smiles": "O=C(O)COc1cc(-c2ccccc2)cc2c1CCCC2NS(=O)(=O)c1cc(C(F)(F)F)cc(C(F)(F)F)c1", "note": "(centres unmarked) [Example 1-24, [5-(3,5-Bis-trifluoromethyl-benzenesulfonyl-amino)-3-phenyl-5,6,7,8-tetrahydro-naphthalen-1-yloxy]-acetic acid]", "IC50": 3.7}
{"smiles": "O=C(O)COc1c(Cl)ccc2c1CCC[C@H]2NS(=O)(=O)c1cc(C(F)(F)F)cc(C(F)(F)F)c1", "note": "[Example 1-25, [(R)-5-(3,5-Bis-trifluoromethyl-benzenesulfonyl-amino)-2-chloro-5,6,7,8-tetrahydro-naphthalen-1-yloxy]-acetic acid]", "IC50": 95.9}
{"smiles": "O=C(O)COc1c(F)c(F)cc2c1CCCC2NS(=O)(=O)c1cc(F)cc(C(F)(F)F)c1", "note": "(centres unmarked) [Example 1-26, [2,3-Difluoro-5-(3-fluoro-5-trifluoromethyl-benzenesulfonyl-amino)-5,6,7,8-tetrahydro-naphthalen-1-yloxy]-acetic acid]", "IC50": 42.2}
{"smiles": "O=C(O)COc1cc(F)cc2c1CCCC2NS(=O)(=O)c1cc(F)cc(C(F)(F)F)c1", "note": "(centres unmarked) [Example 1-27, [3-Fluoro-5-(3-fluoro-5-trifluoromethyl-benzenesulfonyl-amino)-5,6,7,8-tetrahydro-naphthalen-1-yloxy]-acetic acid]", "IC50": 40.1}
